The values that follow are results of earlier work, collected in US5360612A, “Pharmaceutical compositions containing triazole derivatives for rectal administration” (Pfizer Inc., priority 1992, dated 1994).

The structures appear in SMILES notation.

The conditions of this series: in vivo.

As for `CN[C@@H](C)[C@H](O)c1ccccc1` [ephedrine], the “bioavailability from suppository fatty bases” value is given as “do not show good bioavailability”.
